Measured values: ChEMBL document CHEMBL1201862, “PubChem BioAssay data set” (2004)
Active and inactive are the calls of the source.

Experiments:
[1] = target: Type-1 angiotensin II receptor (Homo sapiens, UniProt P30556); assay: AT1 receptor antagonists, dose response, selectivity assay for APJ receptor antagonist project, cell-based, uHTS hits (AID 463214); format: functional;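 also: antagonist potency against angiotensin II stimulated AT1 response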
[2] = target: Lytic switch protein BZLF1 (Epstein-Barr virus (strain B95-8) (HHV-4) (Human herpesvirus 4), UniProt P03206); assay: EBV ZTA inhibitors, dose response, counter-screen for EBNA-1 inhibitor project, biochemical, fluorescence polarization, Epstein-Barr virus, 1536-well (AID 2377); set-up: species or system human gammaherpesvirus 4;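 also: fluorescence polarization of Cy5-labelled ZRE DNA probe bound by purified Zta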
Lytic switch protein BZLF1, sequence (P03206 whole entry): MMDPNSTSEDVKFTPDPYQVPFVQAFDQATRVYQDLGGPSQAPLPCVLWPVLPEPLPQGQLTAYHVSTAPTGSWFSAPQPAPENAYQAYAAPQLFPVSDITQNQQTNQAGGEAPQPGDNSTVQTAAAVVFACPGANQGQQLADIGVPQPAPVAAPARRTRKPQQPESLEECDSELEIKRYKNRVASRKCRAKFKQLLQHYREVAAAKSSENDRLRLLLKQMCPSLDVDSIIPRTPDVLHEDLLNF

[3] = target: Epstein-Barr nuclear antigen 1 (Epstein-Barr virus (strain B95-8) (HHV-4) (Human herpesvirus 4), UniProt P03211); assay: EBNA-1 inhibitors, dose response, biochemical, fluorescence polarization, 1536-well (AID 2381); set-up: species or system human gammaherpesvirus 4;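 also: fluorescence polarization of a Cy5 DNA probe bound by EBNA-1 protein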
Epstein-Barr nuclear antigen 1, sequence (P03211 whole entry): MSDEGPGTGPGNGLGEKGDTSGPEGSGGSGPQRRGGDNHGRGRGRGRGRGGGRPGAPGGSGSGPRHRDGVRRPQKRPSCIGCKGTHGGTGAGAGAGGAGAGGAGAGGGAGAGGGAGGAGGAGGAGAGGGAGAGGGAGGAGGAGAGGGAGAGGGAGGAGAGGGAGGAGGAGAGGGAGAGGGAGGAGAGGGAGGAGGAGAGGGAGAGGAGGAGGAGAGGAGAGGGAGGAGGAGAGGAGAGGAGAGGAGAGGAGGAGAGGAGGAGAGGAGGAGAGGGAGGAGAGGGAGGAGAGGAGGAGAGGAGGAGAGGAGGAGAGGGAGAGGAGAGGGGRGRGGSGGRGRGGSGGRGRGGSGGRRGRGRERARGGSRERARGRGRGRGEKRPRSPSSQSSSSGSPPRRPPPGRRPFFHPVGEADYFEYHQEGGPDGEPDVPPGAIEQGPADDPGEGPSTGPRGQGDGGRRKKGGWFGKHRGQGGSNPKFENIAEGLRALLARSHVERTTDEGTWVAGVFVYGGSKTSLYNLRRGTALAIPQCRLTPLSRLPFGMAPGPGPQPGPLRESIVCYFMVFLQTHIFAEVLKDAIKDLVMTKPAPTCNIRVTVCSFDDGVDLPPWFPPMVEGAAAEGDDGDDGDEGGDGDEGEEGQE

Beta-galactosidase [4] = target: T1, Beta-galactosidase (Escherichia coli, UniProt Q8VNN2); assay: PubChem AID 485352; format: functional
T1 sequence (Q8VNN2 whole entry): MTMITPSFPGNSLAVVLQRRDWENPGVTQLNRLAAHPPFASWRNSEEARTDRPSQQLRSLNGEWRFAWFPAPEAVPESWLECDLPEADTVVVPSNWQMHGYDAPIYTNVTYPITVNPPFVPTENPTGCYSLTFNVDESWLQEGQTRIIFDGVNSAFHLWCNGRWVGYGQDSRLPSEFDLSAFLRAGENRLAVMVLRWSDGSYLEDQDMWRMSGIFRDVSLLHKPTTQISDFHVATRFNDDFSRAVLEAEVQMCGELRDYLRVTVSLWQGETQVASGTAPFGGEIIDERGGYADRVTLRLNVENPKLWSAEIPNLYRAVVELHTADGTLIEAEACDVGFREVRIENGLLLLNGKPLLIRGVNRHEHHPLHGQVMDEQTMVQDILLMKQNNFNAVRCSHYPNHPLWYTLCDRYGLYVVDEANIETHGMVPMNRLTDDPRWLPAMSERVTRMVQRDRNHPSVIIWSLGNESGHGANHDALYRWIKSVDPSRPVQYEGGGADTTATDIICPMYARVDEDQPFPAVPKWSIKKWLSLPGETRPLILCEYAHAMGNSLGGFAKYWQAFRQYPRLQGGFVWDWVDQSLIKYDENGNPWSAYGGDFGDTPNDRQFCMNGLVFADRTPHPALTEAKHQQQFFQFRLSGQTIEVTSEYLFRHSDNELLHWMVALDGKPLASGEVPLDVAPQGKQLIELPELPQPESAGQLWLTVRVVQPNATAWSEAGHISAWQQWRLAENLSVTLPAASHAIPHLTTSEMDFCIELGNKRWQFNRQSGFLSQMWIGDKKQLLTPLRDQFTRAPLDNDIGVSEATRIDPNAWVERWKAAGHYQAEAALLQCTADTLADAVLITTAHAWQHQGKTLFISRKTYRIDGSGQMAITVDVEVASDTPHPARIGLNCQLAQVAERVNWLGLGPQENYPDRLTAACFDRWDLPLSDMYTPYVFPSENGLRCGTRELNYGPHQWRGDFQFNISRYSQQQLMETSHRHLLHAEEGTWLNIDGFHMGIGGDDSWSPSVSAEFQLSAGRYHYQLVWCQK

Vero [5] = assay: cells; format: functional, cell-based; conditions: Chlorocebus sabaeus
[6] = target: Hepatocyte nuclear factor 4-alpha (Homo sapiens, UniProt P41235); format: functional, cell-based;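 also: biochemical luminescence-based dose-response counterscreen measuring inhibition of HNF4 dimerization, run alongside a screen for blockers of ABHD5–perilipin-5 interaction; split luciferase complementation of HNF4 fusion proteins in cell lysate measuring dimerization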
Hepatocyte nuclear factor 4-alpha, sequence (P41235 whole entry, the tested form may be a part): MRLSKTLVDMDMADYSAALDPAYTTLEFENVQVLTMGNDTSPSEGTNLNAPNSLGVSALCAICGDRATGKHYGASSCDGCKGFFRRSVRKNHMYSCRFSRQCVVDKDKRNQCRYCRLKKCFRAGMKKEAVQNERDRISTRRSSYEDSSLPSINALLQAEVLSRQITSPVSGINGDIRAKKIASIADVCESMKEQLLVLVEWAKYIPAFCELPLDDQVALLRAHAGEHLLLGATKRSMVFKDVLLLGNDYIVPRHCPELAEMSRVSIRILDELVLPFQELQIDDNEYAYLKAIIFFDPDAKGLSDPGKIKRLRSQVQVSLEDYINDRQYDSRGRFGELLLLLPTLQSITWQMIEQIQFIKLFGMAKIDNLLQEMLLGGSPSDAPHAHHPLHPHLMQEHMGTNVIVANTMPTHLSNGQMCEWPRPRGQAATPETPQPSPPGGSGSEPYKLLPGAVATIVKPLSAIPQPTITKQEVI

Vero [7] = assay: cells; format: functional; conditions: Chlorocebus sabaeus
[8] = inhibitors of intracellular T. cruzi replication, confirmation, NIH3T3 host cells, beta-gal luminescence (AID 2044); format: functional, cell-based;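 also: intracellular parasites grown in NIH/3T3 mouse fibroblasts as host cells; luminescent beta-galactosidase reporter signal from transgenic T. cruzi replicating inside host cells; inhibitors lower the luminescence signal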
[9] = cytotoxicity toward NIH3T3 fibroblasts, dose response, counter-screen, cell-based, ATP luminescence, mouse fibroblasts (AID 2010); format: functional;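 also: cells exposed to compound for about 90 hours before reading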
[10] = target: T2, Polyadenylate-binding protein 1 (Homo sapiens, UniProt P11940); assay: PABP1 MLLE–PAM2 interaction inhibitors, dose response, miRNA deadenylation inhibitor project, biochemical, fluorescence polarization, Cy5-PAM2 peptide, secondary (AID 602260); format: functional; conditions: read-out: IC50_Mean
T2 sequence (P11940 whole entry): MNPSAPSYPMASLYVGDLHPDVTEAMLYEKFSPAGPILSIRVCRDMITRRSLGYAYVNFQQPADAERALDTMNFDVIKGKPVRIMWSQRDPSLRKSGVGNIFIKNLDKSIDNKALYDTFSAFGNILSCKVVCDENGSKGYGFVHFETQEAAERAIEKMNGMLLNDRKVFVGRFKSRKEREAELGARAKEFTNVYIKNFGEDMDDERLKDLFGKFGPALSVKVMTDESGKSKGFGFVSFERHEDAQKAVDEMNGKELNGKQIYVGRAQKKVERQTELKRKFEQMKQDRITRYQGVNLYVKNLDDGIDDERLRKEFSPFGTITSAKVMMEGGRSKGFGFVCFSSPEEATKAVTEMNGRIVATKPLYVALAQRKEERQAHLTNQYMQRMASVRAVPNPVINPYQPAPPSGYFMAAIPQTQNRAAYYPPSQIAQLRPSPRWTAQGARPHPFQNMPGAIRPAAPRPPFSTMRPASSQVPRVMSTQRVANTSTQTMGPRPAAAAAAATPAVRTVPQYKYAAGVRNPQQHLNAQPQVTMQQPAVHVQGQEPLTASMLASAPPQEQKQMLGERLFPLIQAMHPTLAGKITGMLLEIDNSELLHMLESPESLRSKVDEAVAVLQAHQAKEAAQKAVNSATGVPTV

Genome polyprotein = Genome polyprotein (dengue virus type 2, UniProt P29990); assay: Dengue-2 NS5 methyltransferase inhibitors, primary screen, biochemical, confirmation dose response (AID 588689); format: functional
Genome polyprotein, sequence (P29990 2492-3391 limits assumed): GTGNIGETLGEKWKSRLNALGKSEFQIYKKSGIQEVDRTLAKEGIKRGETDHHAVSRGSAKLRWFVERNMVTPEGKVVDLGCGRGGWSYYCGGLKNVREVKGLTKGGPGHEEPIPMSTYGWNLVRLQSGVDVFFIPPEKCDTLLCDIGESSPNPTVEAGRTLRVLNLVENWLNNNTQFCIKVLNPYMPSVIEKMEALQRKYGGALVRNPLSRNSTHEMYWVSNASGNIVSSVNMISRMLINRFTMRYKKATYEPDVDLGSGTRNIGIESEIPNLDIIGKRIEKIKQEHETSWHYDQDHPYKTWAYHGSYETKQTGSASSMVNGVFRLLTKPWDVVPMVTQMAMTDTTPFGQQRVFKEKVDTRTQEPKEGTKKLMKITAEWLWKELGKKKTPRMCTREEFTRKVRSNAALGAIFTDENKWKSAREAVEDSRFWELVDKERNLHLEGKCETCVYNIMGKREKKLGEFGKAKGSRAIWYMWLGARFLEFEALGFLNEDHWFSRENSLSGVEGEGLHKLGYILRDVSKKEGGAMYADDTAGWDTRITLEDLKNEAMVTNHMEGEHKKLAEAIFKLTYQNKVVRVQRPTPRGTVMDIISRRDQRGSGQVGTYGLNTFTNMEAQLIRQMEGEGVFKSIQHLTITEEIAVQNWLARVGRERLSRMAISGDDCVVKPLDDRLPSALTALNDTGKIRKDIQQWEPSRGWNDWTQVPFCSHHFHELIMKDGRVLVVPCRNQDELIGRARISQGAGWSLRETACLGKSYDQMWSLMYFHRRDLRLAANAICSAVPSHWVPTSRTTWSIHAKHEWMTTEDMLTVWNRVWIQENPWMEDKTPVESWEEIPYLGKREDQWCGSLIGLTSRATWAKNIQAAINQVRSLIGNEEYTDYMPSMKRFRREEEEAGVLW

[11] = target: T3, Rac GTPase-activating protein 1 (Homo sapiens, UniProt Q9H0H5); assay: MgcRacGAP GTPase-activating activity inhibitors, confirmation, biochemical, ADP Hunter fluorescence, primary and confirmatory (AID 624330); format: functional
T3 sequence (Q9H0H5 whole entry): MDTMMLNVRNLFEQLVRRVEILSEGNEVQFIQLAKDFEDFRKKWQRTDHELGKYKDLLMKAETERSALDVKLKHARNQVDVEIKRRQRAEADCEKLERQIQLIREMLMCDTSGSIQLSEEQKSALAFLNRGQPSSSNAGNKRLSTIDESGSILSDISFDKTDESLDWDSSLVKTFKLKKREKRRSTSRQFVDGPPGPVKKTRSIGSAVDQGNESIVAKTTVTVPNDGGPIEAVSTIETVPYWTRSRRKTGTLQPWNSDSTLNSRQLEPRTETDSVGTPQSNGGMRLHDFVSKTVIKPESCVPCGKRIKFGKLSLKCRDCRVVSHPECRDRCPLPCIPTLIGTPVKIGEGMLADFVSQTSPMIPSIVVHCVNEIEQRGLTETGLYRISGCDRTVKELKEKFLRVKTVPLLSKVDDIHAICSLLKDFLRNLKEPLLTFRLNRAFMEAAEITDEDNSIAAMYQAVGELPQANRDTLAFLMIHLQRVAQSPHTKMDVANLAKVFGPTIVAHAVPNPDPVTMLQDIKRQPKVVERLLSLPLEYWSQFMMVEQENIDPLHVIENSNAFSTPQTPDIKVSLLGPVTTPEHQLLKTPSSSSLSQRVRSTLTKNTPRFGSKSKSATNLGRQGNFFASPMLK

Beta-galactosidase [12] = target: T1, Beta-galactosidase; assay: beta-galactosidase enzyme inhibitors and activators, dose response, artefact control for CCR6 antagonist project, biochemical, E. coli enzyme, set 3 (AID 504712); format: functional
Vero [13] = assay: Vero cell cytotoxicity, cytotoxicity control for flavivirus capping enzyme inhibitors (AID 588742); format: functional; conditions: Chlorocebus sabaeus
Hexokinase HKDC1 = target: T4, Hexokinase HKDC1 (Homo sapiens, UniProt Q2TB90); assay: HKDC1 hexokinase inhibitors, dose response, biochemical, W721R variant (AID 504729); format: functional
T4 sequence (Q2TB90 whole entry): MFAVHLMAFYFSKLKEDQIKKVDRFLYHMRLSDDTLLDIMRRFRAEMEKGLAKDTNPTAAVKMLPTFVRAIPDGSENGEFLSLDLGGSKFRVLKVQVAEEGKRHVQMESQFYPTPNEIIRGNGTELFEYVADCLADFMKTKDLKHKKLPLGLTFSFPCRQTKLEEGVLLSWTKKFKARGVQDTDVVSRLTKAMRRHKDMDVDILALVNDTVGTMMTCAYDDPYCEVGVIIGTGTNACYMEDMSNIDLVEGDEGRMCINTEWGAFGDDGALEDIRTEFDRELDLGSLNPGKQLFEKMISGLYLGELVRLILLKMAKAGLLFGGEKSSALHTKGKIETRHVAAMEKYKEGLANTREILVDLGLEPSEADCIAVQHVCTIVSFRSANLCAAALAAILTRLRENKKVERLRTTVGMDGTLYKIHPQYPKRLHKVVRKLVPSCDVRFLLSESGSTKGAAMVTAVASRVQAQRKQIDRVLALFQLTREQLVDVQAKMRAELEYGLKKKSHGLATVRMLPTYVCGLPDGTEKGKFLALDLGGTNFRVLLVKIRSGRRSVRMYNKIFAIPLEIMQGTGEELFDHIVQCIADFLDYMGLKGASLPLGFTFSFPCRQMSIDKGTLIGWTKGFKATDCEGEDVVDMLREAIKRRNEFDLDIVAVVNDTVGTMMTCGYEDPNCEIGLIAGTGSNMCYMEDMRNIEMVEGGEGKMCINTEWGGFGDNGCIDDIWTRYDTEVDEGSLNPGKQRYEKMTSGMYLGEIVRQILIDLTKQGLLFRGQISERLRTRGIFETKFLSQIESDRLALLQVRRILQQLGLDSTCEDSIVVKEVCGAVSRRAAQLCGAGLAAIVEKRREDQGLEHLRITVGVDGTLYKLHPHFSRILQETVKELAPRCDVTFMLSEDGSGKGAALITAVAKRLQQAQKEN

[14] = target: T2, Polyadenylate-binding protein 1; assay: PABP1 MLLE–PAM2 binding inhibitor potency, dose response, biochemical, fluorescence polarization, FITC-PAM2 peptide (AID 602259); format: functional; conditions: read-out: IC50_Mean
Beta-arrestin-1 = Beta-arrestin-1 (Homo sapiens, UniProt P49407); assay: inhibitors of arrestin peptide binding to AP2, dose response, biochemical, cherry pick 1, beta2-adaptin appendage, flow cytometry (AID 588783); format: functional
Beta-arrestin-1, sequence (P49407 whole entry): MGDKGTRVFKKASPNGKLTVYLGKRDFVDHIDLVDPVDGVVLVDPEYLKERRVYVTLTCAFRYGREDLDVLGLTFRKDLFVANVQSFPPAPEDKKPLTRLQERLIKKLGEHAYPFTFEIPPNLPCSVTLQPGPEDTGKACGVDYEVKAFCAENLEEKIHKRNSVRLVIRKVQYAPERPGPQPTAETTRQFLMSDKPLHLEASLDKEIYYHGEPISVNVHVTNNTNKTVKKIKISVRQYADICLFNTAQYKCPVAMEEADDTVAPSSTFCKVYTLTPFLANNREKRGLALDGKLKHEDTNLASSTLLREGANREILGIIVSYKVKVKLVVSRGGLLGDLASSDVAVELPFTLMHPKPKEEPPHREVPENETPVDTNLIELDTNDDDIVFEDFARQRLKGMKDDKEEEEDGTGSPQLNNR

Type-1 angiotensin II receptor, sequence (P30556 whole entry): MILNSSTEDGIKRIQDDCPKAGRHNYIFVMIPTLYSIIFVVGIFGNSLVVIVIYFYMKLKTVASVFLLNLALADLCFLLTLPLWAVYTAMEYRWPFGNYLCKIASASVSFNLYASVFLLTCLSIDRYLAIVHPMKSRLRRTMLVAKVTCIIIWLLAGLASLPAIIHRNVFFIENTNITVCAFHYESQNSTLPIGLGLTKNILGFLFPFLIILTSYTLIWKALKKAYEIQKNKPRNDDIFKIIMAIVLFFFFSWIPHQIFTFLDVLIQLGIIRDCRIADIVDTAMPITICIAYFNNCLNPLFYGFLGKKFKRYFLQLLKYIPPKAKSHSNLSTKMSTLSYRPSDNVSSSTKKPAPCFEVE

CC(C)C(=O)Nc1cccc(C(=O)OCC(=O)c2ccc(Cl)cc2Cl)c1
IC50 [1]: > 40 µM (not active) | IC50 [2]: > 111 µM (not active) | IC50 [3]: 11.3 µM (not active) | EC50 (Beta-galactosidase [4]): > 40 µM (inactive)

COC(=O)c1ccc(Cn2cc(/C=C\[N+](=O)[O-])c3ccccc32)o1
IC50 (Vero [5]): > 25 µM (active) | IC50 [6]: 6.73 µM (active) | CC50 (Vero [7]): 10.4 µM (active)

O=C1C(Cl)=C(NC(=O)c2ccccc2)C(=O)C(Cl)=C1NC(=O)c1ccccc1
EC50 [8]: 2.13 µM (active) | EC50 [9]: 2.78 µM (active) | IC50 [10]: 44.5 µM (inactive) | IC50 (Genome polyprotein): 3.53 µM (active) | IC50 [11]: 6.06 µM (active) | IC50 (Beta-galactosidase [12]): > 66.6 µM (inactive) | CC50 (Vero [13]): 29.5 µM (active) | IC50 (Hexokinase HKDC1): 17.3 µM (active) | IC50 [14]: > 66 µM (inactive) | IC50 (Beta-arrestin-1): 4.97 µM (active)
